Results as given in patent US11149030B2, “Plants having increased tolerance to herbicides” (BASF AGRO B.V., priority 2016, dated 2021).
Several values for one entry are separate records, joined by “and”; a condition that tells them apart may be missing. Equal entries are not always repeated.

What was measured:
[1] = test system: transgenic T2 Arabidopsis plants; experiment: Greenhouse spray of transgenic T2 Arabidopsis plants, herbicide injury 0 to 100% phytotox rating (Table A); format: in vivo; conditions: 14 days after treatment
Description: Additionally, transgenic T2 Arabidopsis plants are tested for improved tolerance to herbicides in greenhouse studies with the following herbicides: methyl 2-[2-chloro-5-[3-chloro-5-(trifluoromethyl)-2-pyridyl]-4-fluoro-phenoxy]-2-methoxy-acetate, and photosynthesis inhibitor diuron as negative control.
Table A: Transgenic T2 Arabidopsis plants, four weeks old, were sprayed in the greenhouse with the indicated amount of compound+1% (v/v) MSO. Herbicide injury was evaluated 14 days after treatment with a 0 to 100% phytotox rating scale where 0 is no injury relative to an unsprayed wild type check and 100% is completely dead.

[2] = test system: T2 maize events expressing the indicated Amaranthus PPO2 variant transgene; experiment: Maize whole plant PPO inhibitor tolerance testing, injury 0-9 point scale (Table B); format: in vivo; conditions: V2 stage, 3 days after treatment, individual plants
Description: Immature embryos are transformed according to the procedure outlined in Peng et al. (WO2006/136596). Plants are tested for the presence of the T-DNA by Taqman analysis with the target being the nos terminator which is present in all constructs. Healthy looking plants are sent to the greenhouse for hardening and subsequent spray testing. The plants are individually transplanted into MetroMix 360 soil in 4″ pots. Once in the greenhouse (day/night cycle of 27° C./21° C. with 14 hour day length supported by 600 W high pressure sodium lights), they are allowed to grow for 14 days. […] 200 g ai/ha saflufenacil+1.0% v/v methylated seed oil (MSO) and/or 25-200 g ai/ha 1,5-dimethyl-6-thioxo-3-(2,2,7-trifluoro-3-oxo-4-(prop-2-ynyl)-3,4-dihydro-2H-benzo[b][1,4]oxazin-6-yl)-1,3,5-triazinane-2,4-dione (CAS 1258836-72-4) plus 1% MSO. Other PPO inhibiting herbicides are also tested in a similar fashion for confirming cross resistance: flumioxazin, butafenacil, acifluorfen, lactofen, bifenox, sulfentrazone, methyl 2-[2-chloro-5-[3-chloro-5-(trifluoromethyl)-2-pyridyl]-4-fluoro-phenoxy]-2-methoxy-acetate, ethyl 2-[2-chloro-5-[3-chloro-5-(trifluoromethyl)-2-pyridyl]-4-fluoro-phenoxy]-2-methoxy-acetate, prop-2-ynyl 2-[2-chloro-5-[3-chloro-5-(trifluoromethyl)-2-pyridyl]-4-fluoro-phenoxy]-2-methoxy-acetate and photosynthesis inhibitor diuron as negative control. […] […] The top survivors are transplanted into gallon pots filled with Metro Mix 360 for seed production.

SMILES: COC(=O)C(OC)Oc1cc(-c2ncc(C(F)(F)F)cc2Cl)c(F)cc1Cl (stereo not drawn) [methyl 2-[2-chloro-5-[3-chloro-5-(trifluoromethyl)-2-pyridyl]-4-fluoro-phenoxy]-2-methoxy-acetate]
- Herbicide injury, 0 to 100% phytotox rating ([1]; construct AMATU_PPO2 R128A_F420V, 150 g ai/ha + 1% (v/v) MSO): 73%
- Herbicide injury, 0 to 100% phytotox rating ([1]; construct AMATU_PPO2 R128I_F420V, 50 g ai/ha + 1% (v/v) MSO): 64%
- Herbicide injury, 0 to 100% phytotox rating ([1]; construct AMATU_PPO2 R128I_F420V, 100 g ai/ha + 1% (v/v) MSO): 66%
- Herbicide injury, 0 to 100% phytotox rating ([1]; construct AMATU_PPO2 R128I_F420V, 200 g ai/ha + 1% (v/v) MSO): 80%
- Herbicide injury, 0 to 100% phytotox rating ([1]; construct AMATU_PPO2 R128L_F420L, 50 g ai/ha + 1% (v/v) MSO): 18%
- Herbicide injury, 0 to 100% phytotox rating ([1]; construct AMATU_PPO2 R128L_F420L, 100 g ai/ha + 1% (v/v) MSO): 30%
- Herbicide injury, 0 to 100% phytotox rating ([1]; construct AMATU_PPO2 R128L_F420L, 200 g ai/ha + 1% (v/v) MSO): 56%
- Herbicide injury, 0 to 100% phytotox rating ([1]; construct AMATU_PPO2 R128M_F420I, 50 g ai/ha + 1% (v/v) MSO): 63%
- Herbicide injury, 0 to 100% phytotox rating ([1]; construct AMATU_PPO2 R128M_F420I, 100 g ai/ha + 1% (v/v) MSO): 83%
- Herbicide injury, 0 to 100% phytotox rating ([1]; construct AMATU_PPO2 R128M_F420I, 200 g ai/ha + 1% (v/v) MSO): 91%
- Herbicide injury, 0 to 100% phytotox rating ([1]; construct AMATU_PPO2 R128M_F420L, 50 g ai/ha + 1% (v/v) MSO): 30%
- Herbicide injury, 0 to 100% phytotox rating ([1]; construct AMATU_PPO2 R128M_F420L, 100 g ai/ha + 1% (v/v) MSO): 60%
- Herbicide injury, 0 to 100% phytotox rating ([1]; construct AMATU_PPO2 R128M_F420L, 200 g ai/ha + 1% (v/v) MSO): 73%
- Herbicide injury, 0 to 100% phytotox rating ([1]; construct AMATU_PPO2 R128M_F420M, 50 g ai/ha + 1% (v/v) MSO): 100%
- Herbicide injury, 0 to 100% phytotox rating ([1]; construct AMATU_PPO2 R128M_F420M, 100 g ai/ha + 1% (v/v) MSO): 85%
- Herbicide injury, 0 to 100% phytotox rating ([1]; construct AMATU_PPO2 R128M_F420M, 200 g ai/ha + 1% (v/v) MSO): 100%
- Herbicide injury, 0 to 100% phytotox rating ([1]; construct AMATU_PPO2 R128M_F420V, 50 g ai/ha + 1% (v/v) MSO): 64%
- Herbicide injury, 0 to 100% phytotox rating ([1]; construct AMATU_PPO2 R128M_F420V, 100 g ai/ha + 1% (v/v) MSO): 75%
- Herbicide injury, 0 to 100% phytotox rating ([1]; construct AMATU_PPO2 R128M_F420V, 200 g ai/ha + 1% (v/v) MSO): 93%
- Herbicide injury, 0 to 100% phytotox rating ([1]; construct Arabidopsis PPO1 S305L_Y426M, 50 g ai/ha + 1% (v/v) MSO): 49%
- Herbicide injury, 0 to 100% phytotox rating ([1]; construct Arabidopsis PPO1 S305L_Y426M, 100 g ai/ha + 1% (v/v) MSO): 100%
- Herbicide injury, 0 to 100% phytotox rating ([1]; construct Arabidopsis PPO1 S305L_Y426M, 150 g ai/ha + 1% (v/v) MSO): 100%
- Herbicide injury, 0 to 100% phytotox rating ([1]; construct CHLSP_PPO_wt_tpFNR (CHLSP_PPO SEQ ID NO: 256), 50 g ai/ha + 1% (v/v) MSO): 91%
- Herbicide injury, 0 to 100% phytotox rating ([1]; construct CHLSP_PPO_wt_tpFNR (CHLSP_PPO SEQ ID NO: 256), 100 g ai/ha + 1% (v/v) MSO): 97%
- Herbicide injury, 0 to 100% phytotox rating ([1]; construct CHLSP_PPO_wt_tpFNR (CHLSP_PPO SEQ ID NO: 256), 200 g ai/ha + 1% (v/v) MSO): 95%
- Herbicide injury, 0 to 100% phytotox rating ([1]; construct OPITE_PPO_wt_tpFNR (OPITE_PPO SEQ ID NO: 249), 50 g ai/ha + 1% (v/v) MSO): 100%
- Herbicide injury, 0 to 100% phytotox rating ([1]; construct OPITE_PPO_wt_tpFNR (OPITE_PPO SEQ ID NO: 249), 100 g ai/ha + 1% (v/v) MSO): 100%
- Herbicide injury, 0 to 100% phytotox rating ([1]; construct OPITE_PPO_wt_tpFNR (OPITE_PPO SEQ ID NO: 249), 200 g ai/ha + 1% (v/v) MSO): 100%
- Herbicide injury, 0 to 100% phytotox rating ([1]; construct hemG_tp_FNR (SEQ ID NO: 245), 50 g ai/ha + 1% (v/v) MSO): 96%
- Herbicide injury, 0 to 100% phytotox rating ([1]; construct hemG_tp_FNR (SEQ ID NO: 245), 100 g ai/ha + 1% (v/v) MSO): 100%
- Herbicide injury, 0 to 100% phytotox rating ([1]; construct hemG_tp_FNR (SEQ ID NO: 245), 200 g ai/ha + 1% (v/v) MSO): 99%
- Herbicide injury, 0 to 100% phytotox rating ([1]; construct hemG_tp_long AMATU (SEQ ID NO: 246), 50 g ai/ha + 1% (v/v) MSO): 68%
- Herbicide injury, 0 to 100% phytotox rating ([1]; construct hemG_tp_long AMATU (SEQ ID NO: 246), 100 g ai/ha + 1% (v/v) MSO): 75%
- Herbicide injury, 0 to 100% phytotox rating ([1]; construct hemG_tp_long AMATU (SEQ ID NO: 246), 200 g ai/ha + 1% (v/v) MSO): 79%
- Herbicide injury, 0 to 100% phytotox rating ([1]; non transformed Arabidopsis, 50 g ai/ha + 1% (v/v) MSO): 100%
- Herbicide injury, 0 to 100% phytotox rating ([1]; non transformed Arabidopsis, 100 g ai/ha + 1% (v/v) MSO): 100%
- Herbicide injury, 0 to 100% phytotox rating ([1]; non transformed Arabidopsis, 150 g ai/ha + 1% (v/v) MSO): 100%
- Herbicide injury, 0 to 100% phytotox rating ([1]; non transformed Arabidopsis, 200 g ai/ha + 1% (v/v) MSO): 100%
- injury on a 0-9 point scale ([2]; maize T2, transgene L397D_F420M, 25 g ai/ha + 1% v/v MSO): 0 (2×) and 3 and 1
- injury on a 0-9 point scale ([2]; maize T2, transgene L397D_F420M, 50 g ai/ha + 1% v/v MSO): 0 (2×) and 1 (2×)
- injury on a 0-9 point scale ([2]; maize T2, transgene L397D_F420M, 100 g ai/ha + 1% v/v MSO): 0 (3×) and 1
- injury on a 0-9 point scale ([2]; maize T2, transgene L397D_F420M, 200 g ai/ha + 1% v/v MSO): 0 (2×) and 2 and 1
- injury on a 0-9 point scale ([2]; maize T2, transgene L397E_F420M, 25 g ai/ha + 1% v/v MSO): 9 (2×) and 2 and 0
- injury on a 0-9 point scale ([2]; maize T2, transgene L397E_F420M, 50 g ai/ha + 1% v/v MSO): 0 and 9 (2×) and 1
- injury on a 0-9 point scale ([2]; maize T2, transgene L397E_F420M, 100 g ai/ha + 1% v/v MSO): 4 and 1 and 0
- injury on a 0-9 point scale ([2]; maize T2, transgene L397E_F420M, 200 g ai/ha + 1% v/v MSO): 0 and 6 (2×) and 5
- injury on a 0-9 point scale ([2]; maize T2, transgene R128A_F420I, 25 g ai/ha + 1% v/v MSO): 0 (2×) and 1 (2×)
- injury on a 0-9 point scale ([2]; maize T2, transgene R128A_F420I, 50 g ai/ha + 1% v/v MSO): 2 and 1 (2×) and 0
- injury on a 0-9 point scale ([2]; maize T2, transgene R128A_F420I, 100 g ai/ha + 1% v/v MSO): 0 (2×) and 1 (2×)
- injury on a 0-9 point scale ([2]; maize T2, transgene R128A_F420I, 200 g ai/ha + 1% v/v MSO): 1 (3×) and 0
- injury on a 0-9 point scale ([2]; maize, Non transgenic, 25 g ai/ha + 1% v/v MSO): 8 and 9 (3×)
- injury on a 0-9 point scale ([2]; maize, Non transgenic, 50 g ai/ha + 1% v/v MSO): 9
- injury on a 0-9 point scale ([2]; maize, Non transgenic, 100 g ai/ha + 1% v/v MSO): 9
- injury on a 0-9 point scale ([2]; maize, Non transgenic, 200 g ai/ha + 1% v/v MSO): 9
